Data set [1] in a line: Pharmacokinetics study in ICR mice. It is filed as in vivo. Particulars: for clearance rate (in words) / half-life (in words) / oral absorption (in words) / oral exposure and bioavailability (in words): mice; for clearance rate (in words) / half-life (in words): administered intravenously; for oral absorption (in words) / oral exposure and bioavailability (in words): oral administration; for Vd / clearance / half-life / AUC / bioavailability / Cmax / Tmax: mouse, plasma, male ICR mice; for AUC: zero to 24 hours; for bioavailability: oral, p.o.: 10 mg/kg vs i.v.: 2 mg/kg. As for the experimental part:
Solution used:10% DMSO+10% Solutol+80% (20% Hp-β-CD)
Single dose pharmacokinetic parameters were determined at Medicilon using male ICR mice (3 […] per group, 2 groups). Groups were dosed i.v. (2 mg/kg) or p.o. (10 mg/kg) and blood samples were taken via submandibular or saphenous vein at the following time points post dosing: 0.083 (i.v. only), 0.25, 0.5, 1, 2, 4, 6 (p.o. only), 8 and 24 h. An aliquot of 50 μL of blood plasma was protein precipitated with 250 μL internal standard solution (200 ng/mL tolbutamide in MeOH), the mixture was vortex-mixed for 1 min and centrifuged at 14,000 rpm for 5 min. The concentration of the test compound in the plasma samples was determined using LC-MS/MS with the peak areas compared to a calibration curve determined using 5-5000 ng/mL test compound in ICR mice plasma. […] Cmax represents peak plasma concentration of the drug; Tmax represents the time to reach Cmax; T1/2 represents elimination half-life or the time taken for Cmax to drop in half; Cl represents clearance; Vd represents apparent volume of distribution; F represents bioavailability; p.o. represents oral administration; and i.v. represents intravenous injection.

Data set [2] in a line: Metabolic stability in dog liver microsomes. It is filed as in vitro ADME, Beagle Dog. Conditions: for half-life: Beagle dog liver microsomes, NADPH, 37° C., read-out: Dog microsome (t1/2). How it is done:
(§1) The appropriate concentrations of microsomes working solutions (0.56 mg/mL) were prepared in potassium phosphate buffer. The test compounds were incubated with Human, SD Rat, CD-1 Mouse and Beagle Dog liver microsomes for 10 min at 37° C. with constant shaking. The reaction was initiated by the addition of nicotinamide adenine dinucleotide phosphate (NADPH) cofactor after a 10 min pre-incubation. At 5, 15, 30, 45, and 60 min, the samples were taken and placed into the stop solution (Cold acetonitrile containing 200 ng/mL tolbutamide and 200 ng/mL labetalol as internal standards). All sampling plates were shaken for 10 min, then centrifuged at 4000 rpm for 20 minutes at 4° C. Each supernatant of bioanalysis plate was sealed and shaken for 10 minutes prior to LC-MS analysis.
Background: Liver microsomes are a subcellular fraction often used to study metabolism.

Data set [3] in a line: Metabolic stability in rat liver microsomes. It is filed as in vitro ADME, SD Rat. Particulars: for half-life: SD rat liver microsomes, NADPH, 37° C., read-out: Rat microsome (t1/2). As for the experimental part: as §1
For data set [4], the target named is T1, IRAK4 (Homo sapiens (Human), UniProt Q9NWZ3). As to the kind of experiment: Kinase binding ability (KINOMEscan site-directed competition binding assay). Conditions: for Kd: Kd between IRAK4 and compound. As for the experimental part:
The Equilibrium dissociation constant reflected the test compound's kinase binding (Kd). The KINOMEscan, a site-directed competition binding assay, was used to measure interactions between test compounds and specific kinases. The kinase-tagged T7 phage strains were derived from the BL21 strain's E. coli host. T7 phage was used to infect E. coli, which was then incubated until lysis occurred. The remaining kinases were produced in HEK-293 cells and tagged with DNA. To create affinity resins for kinase, streptavidin-coated magnetic beads were treated with biotinylated small molecule ligands. The assay consists of three components: a DNA-tagged kinase, an immobilized ligand, and the test compound. An immobilized ligand could compete with the compound binding the kinase active site. The affinity beads were washed with wash buffer and re-suspended in elution buffer following reactions in a polypropylene 384-well plate. qPCR of the kinase-DNA tag was used to assess the test compound's ability to bind with the selected kinase. The assay was carried out in accordance with the manufacturer's instructions (Eurofins DiscoverX Corporation).
Binding constants (Kd) were calculated with a standard dose-response curve using the Hill equation: […]

Data set [5] addresses T1, IRAK4. Briefly: Screening the compounds against IRAK4 with ATP (Caliper, FAM-labeled peptide). It is filed as biochemical. Particulars: for IC50: read-out: IC50 (nM) (10 μM ATP), IRAK4 kinase, 10 μM ATP. Summed up:
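Reactions ran at 28° C after adding peptide and ATP, following a 10 min room-temperature enzyme-compound preincubation in HEPES pH 7.5/Brij-35 buffer; EDTA stop.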

Data set [6] in a line: Metabolic stability in human liver microsomes. It is filed as in vitro ADME. Particulars: for half-life: NADPH, 37° C., read-out: Human microsome (t1/2). As for the experimental part: as §1
A short description of data set [7]: Metabolic stability in mouse liver microsomes. It is filed as in vitro ADME, CD-1 Mouse. Particulars: for half-life: CD-1 mouse liver microsomes, NADPH, 37° C., read-out: Mouse microsome (t1/2). As for the experimental part:
as §1

Bounds are passed on as bounds.

T1 sequence (Q9NWZ3 whole entry): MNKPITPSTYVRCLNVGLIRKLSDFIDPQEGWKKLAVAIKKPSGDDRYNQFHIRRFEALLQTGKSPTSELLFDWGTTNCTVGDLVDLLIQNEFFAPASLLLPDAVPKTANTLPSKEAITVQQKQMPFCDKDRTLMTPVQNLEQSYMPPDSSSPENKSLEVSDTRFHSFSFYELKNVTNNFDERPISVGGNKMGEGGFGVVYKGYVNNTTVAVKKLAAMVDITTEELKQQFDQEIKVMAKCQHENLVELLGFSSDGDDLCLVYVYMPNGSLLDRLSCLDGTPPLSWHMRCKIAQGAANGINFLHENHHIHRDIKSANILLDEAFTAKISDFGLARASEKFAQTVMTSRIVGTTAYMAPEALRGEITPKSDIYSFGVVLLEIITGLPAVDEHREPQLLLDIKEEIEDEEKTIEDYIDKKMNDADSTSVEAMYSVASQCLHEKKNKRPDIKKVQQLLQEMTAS

As for `Cn1cc(-c2cccc(NC(=O)c3cc4c(nc3N3CCC(O)CC3)OC(C)(C)C4)n2)cn1` [Compound B5, 6-(4-Hydroxypiperidin-1-yl)-2,2-dimethyl-N-(6-(1-methyl-1H-pyrazol-4-yl)pyridin-2-yl)-2,3-dihydrofuro[2,3-b]pyridine-5-carboxamide], in data set [1], the “clearance rate (in words)” value is given as “low clearance rate”; the “half-life (in words)” value was “good half-life”; the “oral absorption (in words)” value is reported as “well absorbed orally”; the “oral exposure and bioavailability (in words)” value was “extremely high oral exposure and bioavailability”. The bioavailability in data set [1] turned out to be 91%. Moreover, in data set [1] (iv, i.v.: 2 mg/kg), the Vd came out at 3.6 L/kg, the clearance is 13.6 mL/min/kg, the half-life is 3.1 h and the AUC stood at 2450 ng·h/mL. In data set [1] (po, p.o.: 10 mg/kg), the Cmax worked out at 1460 ng/mL, the Tmax stood at 2 h and the AUC amounted to 9990 ng·h/mL. In data set [2], the half-life is above 2.42 h and the “metabolic stability in liver microsomes of dog (in words)” value is “good metabolic stability”. Besides, in data set [3], the half-life was above 2.42 h and the “metabolic stability in liver microsomes of rat (in words)” value is listed as “good metabolic stability”. Moreover, in data set [4], the “binding affinities to IRAK4 (in words)” value is given as “high binding affinities” and the Kd is 0.69 nM. For the same molecule, the IC50 in data set [5] is 7.6 nM. For the same molecule, in data set [6], the “metabolic stability in liver microsomes of human (in words)” value was “good metabolic stability” and the half-life is above 2.42 h. In data set [7], the half-life was determined as 1.18 h and the “metabolic stability in liver microsomes of mouse (in words)” value is given as “moderate metabolic stability”.

On to `Cn1cc(-c2cccc(NC(=O)c3cc4oc(N5CCOCC5)nc4nc3N3CCC(O)CC3)n2)cn1` [Compound A4, 5-(4-hydroxypiperidin-1-yl)-N-(6-(1-methyl-1H-pyrazol-4-yl)pyridin-2-yl)-2-morpholinooxazolo[4,5-b]pyridine-6-carboxamide], for which, in data set [1], the “clearance rate (in words)” value was “low clearance rate”; the “half-life (in words)” value was “good half-life”; the “oral absorption (in words)” value is on record as “well absorbed orally”; the “oral exposure and bioavailability (in words)” value is “extremely high oral exposure and bioavailability”. For the same molecule, the bioavailability in data set [1] was determined as 130%. For the same molecule, in data set [1] (iv, i.v.: 2 mg/kg), the Vd was 0.98 L/kg, the clearance amounted to 8.1 mL/min/kg, the half-life is 1.4 h and the AUC stood at 4050 ng·h/mL. In addition, in data set [1] (po, p.o.: 10 mg/kg), the Cmax came to 8580 ng/mL, the Tmax was determined as 1.17 h and the AUC was determined as 26400 ng·h/mL. Also, in data set [2], the half-life is 1.7 h and the “metabolic stability in liver microsomes of dog (in words)” value is recorded as “good metabolic stability”. Further, in data set [3], the half-life worked out at 1.53 h and the “metabolic stability in liver microsomes of rat (in words)” value is recorded as “good metabolic stability”. Also, in data set [4], the “binding affinities to IRAK4 (in words)” value was “high binding affinities” and the Kd was 0.59 nM. Further, the “activity, times better than that of the positive control compound CA4948” value in data set [5] (IRAK4 kinase inhibition relative to CA4948) is given as “more than 10 times”. Also, the IC50 in data set [5] is 11 nM. Further, in data set [6], the “metabolic stability in liver microsomes of human (in words)” value was “good metabolic stability” and the half-life was above 2.42 h. Besides, in data set [7], the half-life is above 2.42 h and the “metabolic stability in liver microsomes of mouse (in words)” value is recorded as “good metabolic stability”.

One may read the Vd as the apparent volume that relates the amount in the body to the concentration in plasma or blood. A low value points to confinement near the circulation. One may read the clearance as the volume of plasma or blood freed of the substance per unit of time. As a reminder, the AUC is concentration integrated over time. Higher therefore signals high exposure. What is called Cmax is the peak of the concentration-time curve. What is called Tmax is the time from dosing to the highest level. Broadly, the Kd is the equilibrium constant for the complex coming apart. The low end stands for a tighter complex, the high end for a looser complex. Broadly, the IC50 is the midpoint of a concentration-inhibition curve.

The record behind these values is patent US20250074919A1, “Heteroaryl compounds as inhibitors of irak4, compositions and applications thereof” (Accro Bioscience (HK) Limited, priority 2021, published 2025).
